Test [1] concerns carrageenin-induced edema in the hind paw of a rat. The experiment in a line: Carrageenin Assay (carrageenin-induced edema, hind paw). The format is in vivo, rat (male, Long Evans strain). Conditions: Rattus norvegicus, 1 h before carrageenin, edema at 3 h, compared to phenylbutazone control values, read-out: % Reduction of Edema; for inhibition in vivo at 200 mg/kg: 200 mg/kg oral; for inhibition in vivo at 150 mg/kg: 150 mg/kg oral. As to the method: The procedure employed is a modification of the method of Winter et al, Proc. Soc. Exptl. Biol. Med. 111:544 (1962). The device used for measurement of the paw volume is an adaptation of the water displacement procedure described by Adamkiewicz et al, Can. J. Biochem. Physiol. 33:332 (1955). Test compounds were administered orally, one hour prior to the intraplantar injection of 0.05 ml. of sterile 1.0 percent solution of carrageenin into the left hind paw of male rats (Long Evans strain) weighing between about 130-200 grams. At peak swelling time (3 hours) the volume of edema was calculated by differential paw volumes.
Table I sets forth the results obtained (indicated as percent reduction of edema compared to phenylbutazone control values) at the indicated dosages for each of the identified compounds.

Test [2] has as its system phenylquinone writhing in mice. The experiment in a line: Phenylquinone Writhing Assay (analgesia). Type of test: in vivo, mouse (Carworth CF1 male mice). The settings on record: Mus musculus, po, read-out: Phenylquinone Writhing Assay (% Control), percent analgesia; for responders at 100 mg/kg: 100 mg/kg oral; for responders at 50 mg/kg: 50 mg/kg oral. As to the method: The phenylquinone writhing test was employed to evaluate analgesic activity according to the following procedure:
Phenylquinone (phenyl-p-benzoquinone, No. 7104, Eastman Organic Chemicals) is made up as a 0.02% aqueous solution in 5% ethyl alcohol. Phenylquinone solutions are made up fresh twice daily. Standard reference agents and the test compounds are dissolved or suspended in a 0.25% methylcellulose solution. A control group consisting of ten mice (Carworth CF1 male mice) are administered the 0.02% phenylquinone solution at a dose of 0.25 ml/mouse. The mice are housed individually and observed closely for ten minutes for exhibition of writhing. The onset of writhing occurs within three minutes and 100% of the mice must writhe within ten minutes. Test compounds are administered orally to groups of ten mice. The volume given is 0.01 ml/gram of body weight. Activity can be studied at 15, 30, 60, and 120 minutes after oral administration. After the designated time interval of a dose group has elapsed, the mice are challenged with phenylquinone intraperitoneally. Complete blocking of the writhing syndrom for the ten minute observation period in any one mouse is considered a positive analgesic response for that mouse. Conversely, if any mouse writhes definitely once it is considered not to be protected. The number of mice not writhing in group multiplied by ten equals percent analgesia for that dose at that time interval.
(In general: Writhing tests count abdominal constrictions after an irritant is injected.)

Where a name gives a salt, the structure may show the parent alone. Read-outs that look alike come from different tables or passages of the source.

As for `OCCNc1nncc(-c2ccccc2)n1` [Example 28, 3-B-hydroxyethyl amino-5-phenyl-1,2,4-triazine], the inhibition in vivo at 200 mg/kg in test [1] is 43%. In addition, the responders at 100 mg/kg is 30% in test [2] (0.25 h, 15 Min.); 10% in test [2] (0.5 h, 30 Min.); 10% in test [2] (1 h, 60 Min). On to `NCC(=O)NNc1nncc(-c2ccccc2)n1` [Example 113, N2-(5-Phenyl-1,2,4-Triazin-3-yl) Glycine Hydrazide (Dihydrobromide Hydrate)], for which, in test [1] (50 mg/kg oral), the inhibition in vivo at 50 mg/kg worked out at 32%.

As to `CCCOc1nncc(-c2ccccc2)n1` [Example 31, 3-n-propoxy-5-phenyl-1,2,4-triazine], the inhibition in vivo at 200 mg/kg in test [1] worked out at 51%. In test [2] (0.25 h, 15 Min.), the responders at 100 mg/kg was 10%. Turning to `CSc1nncc(-c2ccc([N+](=O)[O-])cc2)n1` [Example 57, 3-methylthio-5-(4'-nitrophenyl)-1,2,4-triazine], the inhibition in vivo at 200 mg/kg in test [1] was found to be 16%. `COc1ccc(Oc2nncc(-c3ccccc3)n2)cc1` [Example 63, 3-(4'-methoxyphenoxy)-5-phenyl-1,2,4-triazine]: in test [1], the inhibition in vivo at 200 mg/kg was 15%. `CSc1nncc(-c2c[nH]c3ccccc23)n1` [Example 13, 3-methylthio-5-(3'-indolyl)-1,2,4-triazine]: the inhibition in vivo at 200 mg/kg in test [1] worked out at 71%. With `C=CCOc1nncc(-c2ccccc2)n1` [Example 47, 3-allyloxy-5-phenyl-1,2,4-triazine], the inhibition in vivo at 200 mg/kg in test [1] came to 67%. Still for that read-out and setting: for `COc1ccc(-c2cnnc(SC)n2)cc1OC` [Example 33, 3-methylthio-5-(3',4'-dimethoxyphenyl)-1,2,4-triazine] the value was 32%. As for `COc1nncc(C)n1` [Example 17, 3-methoxy-5-methyl-1,2,4-triazine], the inhibition in vivo at 200 mg/kg in test [1] is 8%. Turning to `CC(C)(C)c1cnnc(NN)n1` [Example 5, 3-hydrazino-5-t-butyl-1,2,4-triazine], the inhibition in vivo at 175 mg/kg in test [1] (175 mg/kg oral) was found to be 82%. Moreover, the responders at 25 mg/kg in test [2] (0.5 h, 25 mg/kg oral, 30 Min.) is 20%.

`CCc1ccc(-c2cnnc(SC)n2)cc1` [Example 62, 3-methylthio-5-(4'-ethylphenyl)-1,2,4-triazine]: the inhibition in vivo at 200 mg/kg in test [1] stood at 33%.

Take `C[C@@H]1CC[C@H](C)N1c1nnc(-c2ccccc2)c(-c2ccccc2)n1` [Example 52, 3-(cis-2',5'-dimethylpyrrolidyl)-5,6-diphenyl-1,2,4-triazine]: the inhibition in vivo at 200 mg/kg in test [1] amounted to 22%. In addition, the responders at 100 mg/kg in test [2] (0.5 h, 30 Min.) was 30%; in test [2] (1 h, 60 Min), 10%. Take `COc1nncc(C(C)(C)C)n1` [Example 18, 3-methoxy-5-t-butyl-1,2,4-triazine]: the inhibition in vivo at 200 mg/kg in test [1] came to 64%. Further, the responders at 50 mg/kg in test [2] (0.5 h, 30 Min.) was determined as 40%. Turning to `CSc1nncc(C2CC2)n1` [Example 37, 3-methylthio-5-cyclopropyl-1,2,4-triazine], in test [1], the inhibition in vivo at 200 mg/kg is 86%. Further, the responders at 100 mg/kg in test [2] (0.25 h, 15 Min.) was determined as 20%. As to `Cc1nnc(SCc2ccccc2)nc1C` [Example 56, 3-benzylthio-5,6-dimethyl-1,2,4-triazine], the inhibition in vivo at 200 mg/kg in test [1] was found to be 52%. Still for that read-out and setting: as for `CCOc1nncc(-c2ccccc2)n1` [Example 21, 3-ethoxy-5-phenyl-1,2,4-triazine], the figure is 96%.

For the molecule `CSc1nncc(-c2ccco2)n1` [Example 9, 3-methylthio-5-(2-furyl)-1,2,4-triazine], the inhibition in vivo at 200 mg/kg in test [1] was determined as 39%. The responders at 50 mg/kg amounted to 50% in test [2] (0.5 h, 30 Min.) and 10% in test [2] (1 h, 60 Min).

Regarding `CCOc1nnc(-c2ccccc2)c(-c2ccccc2)n1` [Example 61, 3-ethoxy-5,6-diphenyl-1,2,4-triazine], the inhibition in vivo at 200 mg/kg in test [1] was 12%. Take `c1ccc(Oc2nnc(-c3ccccc3)c(-c3ccccc3)n2)cc1` [Example 53, 3-phenoxy-5,6-diphenyl-1,2,4-triazine]: the inhibition in vivo at 200 mg/kg in test [1] came to 7%. The responders at 100 mg/kg in test [2] (0.25 h, 15 Min.) is 20%; in test [2] (1 h, 60 Min), 10%. As to `CSc1nncc(-c2ccc(N3CCOCC3)cc2)n1` [Example 40, 3-methylthio-5-(4'-morpholinophenyl)-1,2,4-triazine], in test [1], the inhibition in vivo at 200 mg/kg is 19%. The responders at 100 mg/kg in test [2] (0.25 h, 15 Min.) amounted to 30%; in test [2] (0.5 h, 30 Min.) it was 10%. `CSc1nncc(C(C)(C)C)n1` [Example 4, 3-methylthio-5-t-butyl-1,2,4-triazine]: the inhibition in vivo at 150 mg/kg in test [1] worked out at 57%. For the same molecule, the responders at 100 mg/kg in test [2] (0.5 h, 30 Min.) was determined as 20%. On to `Cc1ccc(Oc2nnc(-c3ccccc3)c(-c3ccccc3)n2)cc1` [Example 60, 3-(4'-methylphenoxy)-5,6-diphenyl-1,2,4-triazine], for which, in test [1], the inhibition in vivo at 200 mg/kg turned out to be 18%.

With `COc1nnc(-c2ccccn2)c(-c2ccccn2)n1` [Example 27, 3-methoxy-5,6-di(2'-pyridyl)-1,2,4-triazine], the inhibition in vivo at 200 mg/kg in test [1] came out at 46%. Turning to `COc1nncc(-c2ccc(Br)cc2)n1` [Example 45, 3-methoxy-5-(4'-bromophenyl)-1,2,4-triazine], the inhibition in vivo at 200 mg/kg in test [1] was 33%. Still for that read-out and setting: for `COc1ccc(-c2cnnc(OC)n2)cc1` [Example 46, 3-methoxy-5-(4'-methoxyphenyl)-1,2,4-triazine] the value was 17%; for `Clc1nnc(-c2ccccc2)c(-c2ccccc2)n1` [Example 51, 3-chloro-5,6-diphenyl-1,2,4-triazine], 4%. In the case of `COc1nncc(C23CC4CC(CC(C4)C2)C3)n1` [Example 36, 3-methoxy-5-(1'-adamantyl)-1,2,4-triazine], the inhibition in vivo at 150 mg/kg in test [1] turned out to be 30%. Same read-out and setting: as for `COc1nncc(-c2ccc(F)cc2F)n1` [Example 58, 3-methoxy-5-(2',4'-difluorophenyl)-1,2,4-triazine], the figure is 36%.

For the molecule `COc1nncc(C2CC2)n1` [Example 41, 3-methoxy-5-cyclopropyl-1,2,4-triazine], the inhibition in vivo at 200 mg/kg in test [1] was determined as 57%. On to `CCCCCOc1nncc(-c2ccccc2)n1` [Example 64, 3-n-pentoxy-5-phenyl-1,2,4-triazine], for which the inhibition in vivo at 200 mg/kg in test [1] was 29%. As to `CSc1nncc(C(c2ccccc2)c2ccccc2)n1` [Example 87, 3-methylthio-5-diphenylmethyl-1,2,4-triazine], the responders at 100 mg/kg in test [2] (0.25 h, 15 Min.) stood at 10%; in test [2] (1 h, 60 Min) it was 10%.

As to `COc1nnc(C)c(C)n1` [Example 23, 3-methoxy-5,6-dimethyl-1,2,4-triazine], in test [1] (40 mg/kg oral), the inhibition in vivo at 40 mg/kg turned out to be 4%.

Regarding `CSc1nncc(-c2cccc(Cl)c2)n1` [Example 15, 3-methylthio-5-(3'-chlorophenyl)-1,2,4-triazine], in test [2] (0.25 h, 60 mg/kg oral, 15 Min.), the responders at 60 mg/kg amounted to 10%. Regarding `COc1cccc(-c2cnnc(SC)n2)c1` [Example 68, 3-methylthio-5-(3'-methoxyphenyl)-1,2,4-triazine], the responders at 30 mg/kg in test [2] (0.25 h, 30 mg/kg oral, 15 Min.) amounted to 10%. As to `CSc1nncc(-c2ccccc2)n1` [Example 59, 3-methylthio-5-phenyl-1,2,4-triazine (hydrogen iodide salt)], the inhibition in vivo at 150 mg/kg in test [1] came to 14%. Turning to `Oc1nncc(-c2ccccc2)n1` [Example 90, 3-hydroxy-5-phenyl-1,2,4-triazine], in test [2] (1 h, 60 Min), the responders at 100 mg/kg stood at 20%. For `CSc1nnc(-c2ccc(NC(C)=O)cc2)c(-c2ccc(NC(C)=O)cc2)n1` [Example 14, 3-methylthio-5,6-(4'-acetamidophenyl)-1,2,4-triazine], in test [1], the inhibition in vivo at 200 mg/kg is 12%.
